Measured values reported in publication PMC12387680, “Mohangic Acid H and Mohangiol: New p-Aminoacetophenone Derivatives from a Mudflat-Derived Streptomyces sp” (Marine Drugs, 2025).
Read-outs that look alike come from different tables or passages of the source.

What was measured:
[1] = target: T1, isocitrate lyase (ICL) (Candida albicans, UniProt Q9P8Q7); assay: biochemical
T1 construct: gene ICL1; recombinant ICL

[2] = tested on: T2, T. mentagrophytes; assay: microbe, parasite or virus in culture; set-up: broth microdilution antifungal MIC in RPMI 1640, growth inhibition; conditions: Trichophyton mentagrophytes, 96 h
T2 construct: IFM 40996
Experimental: (§1) Potato dextrose agar (PDA) was used to cultivate Candida albicans ATCC 10231. After incubation for 48 h at 28 °C, the yeast cells were harvested by centrifugation and washed twice with sterile distilled water. Aspergillus fumigatus HIC 6094, Trichophyton rubrum NBRC 9185, and Trichophyton mentagrophytes IFM 40,996 were also plated on PDA and incubated for 2 weeks at 28 °C. Spores were harvested and washed twice with sterile distilled water. Stock solutions of 1 and 2 were prepared in DMSO. Each stock solution was diluted with RPMI 1640 broth (Difco, Livonia, MI, USA) to give serial twofold dilutions in the range of 0.06–128 µg/mL. The final DMSO concentration was maintained at 1% by adding DMSO to the broth. Aliquots (10 µL) of the RPMI 1640 broth containing approximately 10^4 cells/mL were mixed with the test compound solutions in each well of a 96-well plate. The plates were incubated for 24 h (for C. albicans), 48 h (for A. fumigatus), and 96 h (for T. rubrum and T. mentagrophytes) at 37 °C. A culture with DMSO (1%) was used as a solvent control, and a culture supplemented with amphotericin B was used as a positive control. The biological activities of mohangic acid H (1) and mohangiol (2) were evaluated in multiple ways. 1 and 2 were evaluated for inhibitory activities against pathogenic bacteria (Staphylococcus aureus ATCC 25923, Enterococcus faecalis ATCC 19433, Enterococcus faecium ATCC 19434, Salmonella enterica ATCC 14028, Escherichia coli ATCC 25922, Klebsiella pneumoniae ATCC 10031) and fungi (Candida albicans ATCC 10231, Aspergillus fumigatus HIC 6094, Trichophyton rubrum NBRC 9185, Trichophyton mentagrophytes IFM 40996) in broth microdilution MIC assays.

[3] = tested on: T3, T. rubrum; assay: microbe, parasite or virus in culture; set-up: broth microdilution antifungal MIC in RPMI 1640, growth inhibition; conditions: Trichophyton rubrum, 96 h
T3 construct: NBRC 9185
Experimental: as §1

[4] = tested on: T4, A. fumigatus; assay: microbe, parasite or virus in culture; set-up: broth microdilution antifungal MIC in RPMI 1640, growth inhibition; conditions: Aspergillus fumigatus, 48 h
T4 construct: HIC 6094
Experimental: as §1

[5] = tested on: T5, C. albicans; assay: microbe, parasite or virus in culture; set-up: broth microdilution antifungal MIC in RPMI 1640, growth inhibition; conditions: Candida albicans, 24 h
T5 construct: ATCC 10231
Experimental: as §1

[6] = tested on: T6, E. coli; assay: microbe, parasite or virus in culture; set-up: broth microdilution antibacterial MIC, growth inhibition; conditions: Escherichia coli, 24 h
T6 construct: ATCC 25922
Experimental: (§2) Three species of Gram-positive bacteria (Staphylococcus aureus ATCC 25923, Enterococcus faecalis ATCC 19433, and Enterococcus faecium ATCC 19434) and three species of Gram-negative bacteria (Klebsiella pneumoniae ATCC 10031, Salmonella enterica ATCC 14028, and Escherichia coli ATCC 25922) as human pathogens were selected as test strains and prepared for the antibacterial activity assays. The test bacterial strains were cultured overnight in Mueller–Hinton broth (MHB) at 37 °C for human pathogens and in tryptic soy broth (TSB) at 28 °C for B. thuringiensis. The grown strains were harvested by using a centrifuge and washed twice with sterilized water. Ampicillin and tetracycline were used as positive controls, and dimethyl sulfoxide (DMSO) was used as a negative control. Each compound, including 1 and 2, was dissolved in DMSO and diluted with MHB or TSB to prepare serial two-fold dilutions (from 128 µg/mL to 0.015 µg/mL). For the antibacterial activity assay, 10 µL of suspensions containing 1 × 10^6 colony forming units (CFU)/mL of the test bacteria and 190 µL of MHB or TSB, which included the positive control compounds or test compounds, were added into each well of a 96-well plate (final concentration of test bacteria was 5 × 10^4 CFU/mL). Then, the plate was incubated at 37 °C or 28 °C for 24 h. […] The biological activities of mohangic acid H (1) and mohangiol (2) were evaluated in multiple ways. 1 and 2 were evaluated for inhibitory activities against pathogenic bacteria (Staphylococcus aureus ATCC 25923, Enterococcus faecalis ATCC 19433, Enterococcus faecium ATCC 19434, Salmonella enterica ATCC 14028, Escherichia coli ATCC 25922, Klebsiella pneumoniae ATCC 10031) and fungi (Candida albicans ATCC 10231, Aspergillus fumigatus HIC 6094, Trichophyton rubrum NBRC 9185, Trichophyton mentagrophytes IFM 40996) in broth microdilution MIC assays.

[7] = tested on: T7, E. faecium; assay: microbe, parasite or virus in culture; set-up: broth microdilution antibacterial MIC, growth inhibition; conditions: Enterococcus faecium, 24 h
T7 construct: ATCC 19434
Experimental: as §2

[8] = tested on: T8, E. faecalis; assay: microbe, parasite or virus in culture; set-up: broth microdilution antibacterial MIC, growth inhibition; conditions: Enterococcus faecalis, 24 h
T8 construct: ATCC 19433
Experimental: as §2

[9] = tested on: T9, S. aureus; assay: microbe, parasite or virus in culture; set-up: broth microdilution antibacterial MIC, growth inhibition; conditions: Staphylococcus aureus, 24 h
T9 construct: ATCC 25923
Experimental: as §2

[10] = tested on: T10, K. pneumonia; assay: microbe, parasite or virus in culture; set-up: broth microdilution antibacterial MIC, growth inhibition; conditions: Klebsiella pneumoniae, 24 h
T10 construct: ATCC 10031
Experimental: as §2

[11] = tested on: T11, S. enterica; assay: microbe, parasite or virus in culture; set-up: broth microdilution antibacterial MIC, growth inhibition; conditions: Salmonella enterica, 24 h
T11 construct: ATCC 14028
Experimental: as §2

[12] = read-out: IC50 (μg/mL) (converted)

T1 sequence (Q9P8Q7 whole entry): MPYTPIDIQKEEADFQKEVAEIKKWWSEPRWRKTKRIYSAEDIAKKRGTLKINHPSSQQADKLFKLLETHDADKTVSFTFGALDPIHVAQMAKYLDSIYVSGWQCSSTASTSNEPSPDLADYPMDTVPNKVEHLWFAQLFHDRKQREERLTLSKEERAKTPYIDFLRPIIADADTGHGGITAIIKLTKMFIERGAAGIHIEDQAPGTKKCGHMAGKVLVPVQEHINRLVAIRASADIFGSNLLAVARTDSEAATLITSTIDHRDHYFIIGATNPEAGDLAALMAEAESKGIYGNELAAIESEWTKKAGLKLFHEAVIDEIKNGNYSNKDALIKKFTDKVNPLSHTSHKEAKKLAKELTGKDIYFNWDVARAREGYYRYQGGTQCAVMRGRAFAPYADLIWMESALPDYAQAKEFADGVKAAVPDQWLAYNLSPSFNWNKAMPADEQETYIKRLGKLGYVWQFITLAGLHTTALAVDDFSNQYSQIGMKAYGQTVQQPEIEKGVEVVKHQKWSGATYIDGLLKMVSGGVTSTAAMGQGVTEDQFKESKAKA

| SMILES | IC50 [1] [µM] | IC50 [1, 12] [µM] | MIC [2] [µM] | MIC [3] [µM] | MIC [4] [µM] | MIC [5] [µM] | MIC [6] [µM] | MIC [7] [µM] | MIC [8] [µM] | MIC [9] [µM] | MIC [10] [µM] | MIC [11] [µM] |
| --- | --- | --- | --- | --- | --- | --- | --- | --- | --- | --- | --- | --- |
| O=C(O)CC[N+](=O)[O-] [3-nitropropionate, reference compound] | 126 |  |  |  |  |  |  |  |  |  |  |  |
| CC(=O)Nc1ccc(C(=O)C[C@@H](O)[C@H](C)C[C@@H](C)[C@H](O)[C@H](C)/C=C/C=C/C(=O)O)cc1 [compound 1, Mohangic acid H] |  | 49.5 | > 128 | > 128 | > 128 | > 128 | > 128 | > 128 | > 128 | > 128 | > 128 | > 128 |
| C[C@H](O)CC/C=C/C=C/[C@@H](C)[C@@H](O)[C@H](C)C[C@@H](C)[C@H](O)CC(=O)c1ccc(N)cc1 [compound 2, Mohangiol] |  | 50.6 | > 128 | > 128 | > 128 | > 128 | > 128 | > 128 | > 128 | > 128 | > 128 | > 128 |
